Reference: publication PMC10135033, “Sulfonamidoboronic Acids as “Cross-Class” Inhibitors of an Expanded-Spectrum Class C Cephalosporinase, ADC-33, and a Class D Carbapenemase, OXA-24/40: Strategic Compound Design to Combat Resistance in Acinetobacter baumannii” (Antibiotics, 2023)
Read-outs that look alike come from different tables or passages of the source.

Columns and labels:
[1] = biological target: ADC-33 (Acinetobacter baumannii, UniProt A7Y407); experiment: Ki determination, competition assay with nitrocefin (NCF) as substrate; format: biochemical; settings: for Ki: corrected for NCF affinity, 5 min pre-incubation, pH 7.4
Experimental: (§1) The affinity of CR167 for the two different β-lactamases was measured in competition assays using nitrocefin (NCF) as the indicator substrate (Table 1).
(§2) The binding affinity of each of the compounds 6a–e with ADC-33 and with OXA-24/40 was determined after 5 min pre-incubation of boronic acid and the enzyme, using competition assays with nitrocefin (NCF) as the substrate. […] These compounds differ in three structural characteristics: stereochemistry, the presence of the m-carboxylate on the aromatic ring, and the small chain linked to the chiral center. […] Finally, the smaller the steric hindrance is at the R1 position, the higher the affinity is.
(§3) Ki values were determined by using nitrocefin as a reporter substrate and treating the compounds as competitive inhibitors. Steady-state kinetic parameters were determined by combining pure enzyme with nitrocefin in 50 mM NaH2PO4; 25 mM NaHCO3, pH 7.4 (for OXA-24/40); or 50 mM NaH2PO4, pH 7.4 (for ADC-33), at room temperature. Changes in absorbance were measured on a Cary 60 UV−Vis spectrophotometer (Agilent Technologies) and converted to velocity using the change-in-extinction coefficient specific to nitrocefin (ε = 17,400 M^−1·cm^−1 at 482 nm). Initial velocities were fit to the Michaelis–Menten equation, yielding kcat and Km values. Next, the enzyme was challenged with a constant concentration of nitrocefin and increasing amounts of inhibitor. IC50 values were used to calculate Ki values using the Cheng–Prusoff equation as previously described. Specifically, the measurements of the initial velocities were performed with the addition of 100 µM NCF after a 5 min pre-incubation of the enzyme (2 nM) with increasing concentration of the inhibitor [37]. To determine the average velocities (v0), data from three experiments were fit to Equation (1): (1) v0=vu −{vu[I]/IC 50+[I]} where vu represents the NCF uninhibited velocity and IC50 represents the inhibitor concentration that results in a 50% reduction in vu. The Ki value was corrected for the NCF affinity (Km values for both OXA-24/40 and ADC-33) with the Cheng–Prusoff equation (Equation (2)): (2) Ki=IC50/(1+[NCF]/KmNCF)

[2] = biological target: T1, OXA-24/40 (Acinetobacter baumannii, UniProt Q8RLA6); experiment: as above; format: biochemical
T1 construct: made in house
Experimental: as §1, §2, §3

[3] = system: A. baumannii ATCC 17978 native ADC KO, OXA-24 pWH1266; experiment: Antimicrobial susceptibility testing, broth microdilution; format: cell-based; settings: Acinetobacter baumannii
Experimental: The inhibitory effects of both compounds were tested against ADC-33 and OXA-24/-40 in A. baumannii, their native host. ATCC 17978, with its intrinsic chromosomal ADC knocked out (intrinsic OXA still present), was used in these experiments. In this isolate, the ADC MICs were not lowered by the inhibitors as much as they were against the E. coli background (Table 4).
pWH1266 is a vector that replicates in A. baumannii, and the […] pWH1266 construct was generated as follows. The TEM gene was removed using inverse PCR, and an Xba1 site was engineered into the vector. blaOXA-24/40 and its upstream XerC/XerD were amplified from strain NM55. The amplified gene was cloned into the Xba1 site of the altered pWH1266 vector. The construct was confirmed using PCR and sequencing. Both blaADC-33 pQF1266 and […] pWH1266 were then expressed in A. baumannii ATCC 17978 that had the intrinsic chromosomal ADC gene knocked out.
The chromosomal blaADC-51 gene in ATCC 17978 was deleted and replaced with an apramycin resistance cassette using the recombineering method described by Tucker et al.. Primers used for this deletion were: Del AmpC-apra.For: […]; and Del AmpC-apra.Rev: […]. The correct deletion mutant was confirmed using PCR and sequencing.
(§4) Testing of susceptibility to standard antibiotics was performed with broth microdilution according to CLSI guidelines. MICs for CAZ, CTX, FEP, and IMI were determined using cation-adjusted Mueller–Hinton broth according to CLSI methods, and CR167 or 6b was used at a fixed concentration of 10 mg/L. All MICs were interpreted according to the 2022 Clinical and Laboratory Standards Institute (CLSI) guidelines.

[4] = system: clinical A. baumannii isolate PR462 (OXA-24, OXA-65, ADC-214); experiment: Antimicrobial susceptibility testing, clinical isolate, broth microdilution; format: cell-based; settings: Acinetobacter baumannii, inhibitor at 10 mg/L
Experimental: (§5) Clinical A. baumannii isolates containing ADC-33 or OXA-24/-40 in combination with various other well-defined β-lactamases were also tested against CR167 and 6b (Table 5).
(§6) The clinical A. baumannii isolates used to test the β-lactamase inhibitors were selected from a previously well-characterized collection in our lab. They were chosen as they had either ADC-33 and/or OXA-24 in combination with other known β-lactamases (for specific combinations, see Table 5).
as §4

[5] = system: clinical A. baumannii isolate PR323 (OXA-24, OXA-65, ADC-218); experiment: as above; format: cell-based; settings: Acinetobacter baumannii
Experimental: as §5, §6, §4

[6] = system: clinical A. baumannii isolate PR396 (OXA-82, ADC-33); experiment: as above; format: cell-based; settings: Acinetobacter baumannii, inhibitor at 10 mg/L
Experimental: as §5, §6, §4

[7] = system: clinical A. baumannii isolate PR474 (OXA-23, OXA-24, OXA-65, ADC-218); experiment: as above; format: cell-based; settings: Acinetobacter baumannii
Experimental: as §5, §6, §4

[8] = system: clinical A. baumannii isolate PR328 (OXA-23, OXA-82, ADC-33); experiment: as above; format: cell-based; settings: Acinetobacter baumannii
Experimental: as §5, §6, §4

[9] = system: clinical A. baumannii isolate PR408 (OXA-24, OXA-71, ADC-212); experiment: as above; format: cell-based; settings: Acinetobacter baumannii
Experimental: as §5, §6, §4

[10] = system: clinical A. baumannii isolate PR378 (OXA-24, OXA-65, TEM-1); experiment: as above; format: cell-based; settings: Acinetobacter baumannii
Experimental: as §5, §6, §4

[11] = ATCC17978, read-out: MIC of CAZ with BLI
[12] = ATCC17978, read-out: MIC of CTX with BLI
[13] = ATCC17978, read-out: MIC of FEP with BLI
[14] = ATCC17978, read-out: MIC of IMI with BLI
[15] = inhibitor at 10 mg/L, PR323, read-out: MIC of CAZ with BLI
[16] = inhibitor at 10 mg/L, PR323, read-out: MIC of CTX with BLI
[17] = inhibitor at 10 mg/L, PR474, read-out: MIC of CAZ with BLI
[18] = inhibitor at 10 mg/L, PR474, read-out: MIC of CTX with BLI
[19] = inhibitor at 10 mg/L, PR328, read-out: MIC of CAZ with BLI
[20] = inhibitor at 10 mg/L, PR408, read-out: MIC of CAZ with BLI
[21] = inhibitor at 10 mg/L, PR408, read-out: MIC of CTX with BLI
[22] = inhibitor at 10 mg/L, PR378, read-out: MIC of CAZ with BLI
[23] = inhibitor at 10 mg/L, PR378, read-out: MIC of CTX with BLI

T1 sequence (Q8RLA6 22-275): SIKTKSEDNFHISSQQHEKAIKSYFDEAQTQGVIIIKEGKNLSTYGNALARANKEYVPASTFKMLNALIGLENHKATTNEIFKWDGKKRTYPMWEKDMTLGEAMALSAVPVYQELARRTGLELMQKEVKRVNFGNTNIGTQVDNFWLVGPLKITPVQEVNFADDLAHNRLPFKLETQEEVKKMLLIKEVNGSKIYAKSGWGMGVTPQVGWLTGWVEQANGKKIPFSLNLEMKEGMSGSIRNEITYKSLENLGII

Row | SMILES | Ki [1] [nM] | Ki [2] [nM] | MIC [3, 11] [µg/mL] | MIC [3, 12] [µg/mL] | MIC [3, 13] [µg/mL] | MIC [3, 14] [µg/mL] | MIC ([4]; read-out: MIC of CAZ with BLI) [µg/mL] | MIC ([4]; read-out: MIC of CTX with BLI) [µg/mL] | MIC ([4]; read-out: MIC of IMI with BLI) [µg/mL] | MIC ([5]; read-out: MIC of IMI with BLI) [µg/mL] | MIC [5, 15] [µg/mL] | MIC [5, 16] [µg/mL] | MIC ([6]; read-out: MIC of CAZ with BLI) [µg/mL] | MIC ([6]; read-out: MIC of CTX with BLI) [µg/mL] | MIC ([6]; read-out: MIC of IMI with BLI) [µg/mL] | MIC ([7]; read-out: MIC of IMI with BLI) [µg/mL] | MIC [7, 17] [µg/mL] | MIC [7, 18] [µg/mL] | MIC ([8]; read-out: MIC of IMI with BLI) [µg/mL] | MIC [8, 19] [µg/mL] | also measured
1 | C[C@@H](NS(=O)(=O)Cc1cccc(C(=O)O)c1)B(O)O [6b] | 790 ± 200 | 5200 ± 500 | 8 | 16 | 32 | 128 | 256 | 512 | 64 | 128 | 4100 | 2050 | 2050 | 512 | 64 | 128 | 4100 | 2050 | 128 | 2050 | fold more potent than 6d, ADC-33 ([1]; ratio of Ki, 6b vs 6d): 28 fold; fold higher affinity than compound 6a for OXA-24/40 ([2]; ratio of Ki, 6b vs 6a): 120 fold; fold more potent than 6d, OXA-24/40 ([2]; ratio of Ki, 6b vs 6d): 60 fold; MIC ([8]; inhibitor at 10 mg/L, PR328, read-out: MIC of CTX with BLI): 256 µg/mL; MIC ([9]; read-out: MIC of IMI with BLI): 128 µg/mL; MIC [9, 20]: 512 µg/mL; MIC [9, 21]: 1020 µg/mL; MIC [10, 22]: 32 µg/mL; MIC [10, 23]: 64 µg/mL; MIC ([10]; inhibitor at 10 mg/L, PR378, read-out: MIC of IMI with BLI): 256 µg/mL
2 | O=C(O)c1cccc(CS(=O)(=O)NCB(O)O)c1 [CR167] | 57 ± 15 | 4400 ± 500 | 8 | 16 | 32 | 128 | 64 | 256 | 64 | 128 | 4100 | 2050 | 1020 | 256 | 64 | 128 | 4100 | 2050 | 128 | 1020 | MIC ([8]; read-out: MIC of CTX with BLI): 128 µg/mL; MIC ([9]; read-out: MIC of IMI with BLI): 128 µg/mL; MIC [9, 20]: 512 µg/mL; MIC [9, 21]: 1020 µg/mL; MIC ([10]; read-out: MIC of IMI with BLI): 128 µg/mL; MIC [10, 22]: 32 µg/mL; MIC [10, 23]: 64 µg/mL
